# Measured values from ChEMBL document CHEMBL5257024, “Synthesis of α,β-Unsaturated Carbonyl-Based Compounds, Oxime and Oxime Ether Analogs as Potential Anticancer Agents for Overcoming Cancer Multidrug Resistance by Modulation of Efflux Pumps in Tumor Cells” (J Med Chem, 2016).
# Assays:
# A549 = test: Antiproliferative activity against human A549 cells assessed as inhibition of cell growth incubated for 48 hrs by propidium iodide staining based fluorometer assay; type: functional; settings: A549, 48 h
# MIA PaCa-2 = test: Antiproliferative activity against human MIA PaCa-2 cells assessed as inhibition of cell growth incubated for 48 hrs by propidium iodide staining based fluorometer assay; type: functional; settings: MIA PaCa-2, 48 h
# PANC-1 = test: cells; settings: Homo sapiens, PANC-1, 48 h
# Description: Antiproliferative activity against human PANC-1 cells assessed as inhibition of cell growth incubated for 48 hrs by propidium iodide staining based fluorometer assay
# HT-29 = test: cells; settings: Homo sapiens, HT-29, 48 h
# Description: Antiproliferative activity against human HT-29 cells assessed as inhibition of cell growth incubated for 48 hrs by propidium iodide staining based fluorometer assay
# MCF7 = test: Antiproliferative activity against human MCF7 cells assessed as inhibition of cell growth incubated for 48 hrs by propidium iodide staining based fluorometer assay; type: functional; settings: MCF7, 48 h
# NCI-H460 = test: cells; settings: Homo sapiens, NCI-H460, 48 h
# Description: Antiproliferative activity against human NCI-H460 cells assessed as inhibition of cell growth incubated for 48 hrs by propidium iodide staining based fluorometer assay
# PC-3 = test: cells; settings: Homo sapiens, PC-3, 48 h
# Description: Antiproliferative activity against human PC-3 cells assessed as inhibition of cell growth incubated for 48 hrs by propidium iodide staining based fluorometer assay
# [1] = Cytotoxicity against human MCF-10A cells assessed as cell viability incubated for 96 hrs by MTT assay; type: toxicity, cell-based; parameters: concentration or dose not given beside the values; settings: read-out: Activity
SMILES,IC50 (A549),IC50 (MIA PaCa-2),IC50 (PANC-1),IC50 (HT-29),IC50 (MCF7),IC50 (NCI-H460),IC50 (PC-3),viability at 96 h [1]
COc1cc(/C=C2\CCC/C(=C\c3cc(OC)c(OC)c(OC)c3Br)C2=O)c(Br)c(OC)c1OC,2.6 µM,2.6 µM,2.4 µM,2 µM,3.1 µM,2.6 µM,2.9 µM,89%
COc1ccc(/C=C2\CC(C)C/C(=C\c3ccc(OC)c(OC)c3Cl)C2=O)c(Cl)c1OC (configuration not stated),4.4 µM,3 µM,3.2 µM,2.9 µM,3.2 µM,2.9 µM,3.7 µM,94%
COc1cccc2c1CC/C(=C\c1cc(OC)c(OC)c(OC)c1Br)C2=O,4.5 µM,4.6 µM,4.2 µM,3.9 µM,5.7 µM,4.7 µM,3.9 µM,94%
COc1cc(/C=C2\CC(C)C/C(=C\c3cc(OC)c(OC)c(OC)c3Br)C2=O)c(Br)c(OC)c1OC (configuration not stated),1.8 µM,1.4 µM,1.6 µM,1.8 µM,1.3 µM,1.2 µM,1.1 µM,91%
COc1ccc2c(c1)CC/C(=C\c1ccc(OC)c(OC)c1Cl)C2=O,2.9 µM,2.3 µM,2.1 µM,2.7 µM,2.6 µM,2.6 µM,2 µM,89%
COc1cc(/C=C2\CCc3ccc(Cl)cc3C2=O)c(Br)c(OC)c1OC,10.7 µM,10.4 µM,10.2 µM,9.9 µM,12.9 µM,10.7 µM,10.2 µM,90%
COc1cc(/C=C2\CCc3c(O)cccc3C2=O)c(Br)c(OC)c1OC,1.6 µM,1.9 µM,1.9 µM,1.9 µM,1.8 µM,1.9 µM,2.2 µM,93%
COc1cc2c(cc1OC)C(=O)/C(=C/c1cc(OC)c(OC)c(OC)c1Br)CC2,2.2 µM,2.4 µM,2.6 µM,2.8 µM,2.8 µM,2.2 µM,2 µM,98%
COc1cccc(/C=C2\CNC/C(=C\c3cccc(OC)c3Cl)C2=O)c1Cl,7.3 µM,7.7 µM,7.5 µM,7.4 µM,8.4 µM,7.3 µM,7.6 µM,94%
COc1cccc(/C=C2\CC(C(C)C)C/C(=C\c3cccc(OC)c3Cl)C2=O)c1Cl (configuration not stated),13.4 µM,16.7 µM,14.5 µM,12.1 µM,15.2 µM,13.9 µM,14.1 µM,93%
COc1cc(/C=C2\CN(C)C/C(=C\c3cc(OC)c(OC)c(OC)c3Br)C2=O)c(Br)c(OC)c1OC,1.3 µM,1.9 µM,1.8 µM,1.1 µM,1.9 µM,1.8 µM,1.6 µM,92%
COc1cccc2c1CC/C(=C\c1ccc(OC)c(OC)c1Cl)C2=O,6.7 µM,6.7 µM,6.9 µM,6.7 µM,6.4 µM,6.4 µM,7.2 µM,95%
COc1ccc(/C=C2\CN(C)C/C(=C\c3ccc(OC)c(OC)c3Cl)C2=O)c(Cl)c1OC,3.9 µM,3.2 µM,3.4 µM,3.8 µM,3.3 µM,3.5 µM,3.3 µM,90%
COc1cc(/C=C2\CCc3ccc([N+](=O)[O-])cc3C2=O)c(Br)c(OC)c1OC,1.3 µM,1.5 µM,1.2 µM,1.4 µM,1.4 µM,1.3 µM,1.4 µM,88%

# Second part, led by results:
IC50 (A549),IC50 (MIA PaCa-2),IC50 (PANC-1),IC50 (HT-29),IC50 (MCF7),IC50 (NCI-H460),IC50 (PC-3),SMILES,viability at 96 h [1]
7.6 µM,7.5 µM,7.2 µM,6.7 µM,8.1 µM,7.4 µM,7.2 µM,COc1cc(/C=C2\CC(C(C)C)C/C(=C\c3cc(OC)c(OC)c(OC)c3Br)C2=O)c(Br)c(OC)c1OC (configuration not stated),89%
16.2 µM,15.5 µM,15.6 µM,10.3 µM,15.4 µM,13.9 µM,15.7 µM,COc1ccc(/C=C2\CN(Cc3ccccc3)C/C(=C\c3ccc(OC)c(OC)c3Cl)C2=O)c(Cl)c1OC,89%
10.3 µM,10.6 µM,10.8 µM,10.5 µM,11.1 µM,11.1 µM,10.4 µM,COc1ccc(/C=C2\CCc3ccc(Br)cc3C2=O)c(Cl)c1OC,92%
4.4 µM,4.3 µM,4.2 µM,4.5 µM,4 µM,4.9 µM,4.8 µM,COc1cc(/C=C2\CNC/C(=C\c3cc(OC)c(OC)c(OC)c3Br)C2=O)c(Br)c(OC)c1OC,96%
7.1 µM,6.6 µM,6.9 µM,7 µM,6.6 µM,7.2 µM,6.4 µM,CCN(CC)CCO/N=C1\C(=C\c2ccc(OC)c(OC)c2Cl)CCc2ccc([N+](=O)[O-])cc21,94%
2.6 µM,2.2 µM,2.5 µM,1.9 µM,2.4 µM,2.1 µM,2.2 µM,COc1ccc(OC)c2c1CC/C(=C\c1cc(OC)c(OC)c(OC)c1Br)C2=O,91%
5.4 µM,5 µM,5.4 µM,5.2 µM,5.4 µM,5.8 µM,5.2 µM,COc1cc2c(cc1OC)C(=O)/C(=C/c1ccc(OC)c(OC)c1Cl)CC2,97%
23.3 µM,23.2 µM,24.5 µM,26.5 µM,20.5 µM,22.9 µM,23.4 µM,COc1ccc(/C=C2\CCc3ccccc3C2=O)c(Cl)c1OC,96%
2.6 µM,2.3 µM,2.4 µM,2.9 µM,2.1 µM,2.2 µM,2.4 µM,COc1cc(/C=C2\CC(C)c3ccccc3C2=O)c(Br)c(OC)c1OC (configuration not stated),92%
3.9 µM,4.2 µM,4.2 µM,3.7 µM,4.7 µM,4.1 µM,5.2 µM,COc1ccc(/C=C2\CCC/C(=C\c3ccc(OC)c(OC)c3Cl)C2=O)c(Cl)c1OC,90%
